In data set [1] the test system is human neutrophils. Description: O2•− (superoxide) production in fMLF-activated human neutrophils. Type of data set: cell-based. Conditions: Neutrophil; fMLF (0.1 μM)/CB-activated human neutrophils; read-out: IC50, suppression of superoxide production. As to the method:
(§1) Human neutrophils were obtained in lipopolysaccharide-free conditions by means of dextran sedimentation and Ficoll centrifugation.
O2^•− production was determined based on the SOD-inhibitable reduction of ferricytochrome c. Briefly, neutrophils (6×10^5/mL) were treated with LS-PH at 37° C. at various concentrations (0.03 to 3 μM) for 5 min after being supplementing with 0.5 mg/mL ferricytochrome c and 1 mM Ca^2+. Cells were activated with formyl-L-methionyl-L-leucyl-L-phenylalanine (fMLF, 0.1 μM) for 10 min in the pre-process of cytochalasin B (CB, 1 μg/mL) for 3 min. Changes in absorbance with the reduction of ferricytochrome c at 550 nm were continuously monitored in a double-beam, six-cell positioner spectrophotometer with constant stirring (Hitachi U-3010, Tokyo, Japan). Calculations were based on the differences in the reactions with and without SOD (100 U ml^−1) divided by the extinction coefficient for the reduction of ferricytochrome c (ε=21.1 mM^−1/10 mm).

The test system of data set [2] is human neutrophils. Kind of data set: Elastase release from fMLF-activated human neutrophils. Conditions: Neutrophil; fMLF (0.1 μM)/CB-activated human neutrophils; read-out: IC50, suppression of elastase release. Type of data set: cell-based. As to the method: as §1
MeO-Suc-Ala-Ala-Pro-Val-p-nitroanilide was employed as the elastase substrate for the determination of elastase release. Briefly, after supplementation with Methoxysuccinyl-Ala-Ala-Pro-Val-p-nitroanilide (Ms-Ala-Ala-Pro-Val-pNA) (100 μM), neutrophils (6×10^5/mL) were equilibrated at 37° C. for 2 min and incubated with LS-PH at various concentrations for 5 min. Cells were activated with fMLF (0.1 μM) for 10 min in the pre-process of cytochalasin B (CB, 0.5 μg/mL) for 3 min, and changes in absorbance at 405 nm were continuously monitored to evaluate elastase release. Results are expressed as the percentage of elastase release in the drug-free control group, DMSO.

For data set [3], the system named is human neutrophils. Description: Intracellular ROS formation in fMLF-activated human neutrophils. Type of data set: cell-based. How it is done: as §1
After supplementation with dihydrorhodamine 123 (2 μM), neutrophils (1×10^6/mL) were equilibrated at 37° C. for 12 min and incubated with LS-PH at various concentrations for 5 min. Cells were activated with fMLF (0.1 μM) for 5 min in the pre-process of cytochalasin B (CB, 0.5 μg/mL) for 3 min. Intracellular ROS was determined by use of flow cytometer.

The test system of data set [4] is human neutrophils. Type of data set: cell-based. Conditions: 0.03 to 3 μM. How it is done:
Cytotoxicity of LS-PH towards neutrophils was evaluated by measuring the level of lactate dehydrogenase (LDH) using a commercial kit (Promega). LDH is a cytosolic enzyme that is released only when cell membrane is disrupted (i.e., cell death), thus may be used as an indicator of cell viability. The kit measures a color change at (λmax=450 nm) when LDH reduces NAD to NADH. Cytotoxicity was expressed as the percent LDH activity obtained in cell-free medium compared to the total LDH activity. Total LDH activity was determined by lysing cells with 0.1% Triton X-100 for 30 min at 37° C.

A further data set deals with T1, FPR1 (Homo sapiens, UniProt P21462).
T1 construct: endogenous in cells; host or cells: neutrophils
T1 sequence (P21462 1-350): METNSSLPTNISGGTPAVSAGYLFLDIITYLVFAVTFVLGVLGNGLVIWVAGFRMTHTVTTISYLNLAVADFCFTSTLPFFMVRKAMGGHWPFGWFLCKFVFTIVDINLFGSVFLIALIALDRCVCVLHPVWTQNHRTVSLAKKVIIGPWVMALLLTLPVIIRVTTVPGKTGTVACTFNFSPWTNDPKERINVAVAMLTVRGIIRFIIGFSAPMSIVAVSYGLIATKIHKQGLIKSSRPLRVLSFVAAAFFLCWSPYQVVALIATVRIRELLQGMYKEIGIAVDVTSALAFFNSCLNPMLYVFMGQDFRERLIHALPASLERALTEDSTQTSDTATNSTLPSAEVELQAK
Description: FPR1 binding assay (FNLFNYK, flow cytometry). The note with it: neutrophils, FNLFNYK 4 nM, 4° C.; read-out: IC50, suppression of binding of FPR1-specific ligand FNLFNYK. How it is done: Neutrophils (2×10^6 cells/ml) were incubated with various concentrations of compound LS-PH (0.03 to 3 μM) or fMLF (10 μM) at 4° C. for 5 min, and labeled with FPR1-specific ligand […] (4 nM) for 30 min. Then, the binding was determined by use of flow cytometry.
In general terms: In flow cytometry, cells or beads pass a laser one at a time.

Usually IC50 stands for the point on the concentration scale where inhibition reaches its midpoint. Turning to `C=C(C)C1CCC2(C(=O)O)CC[C@]3(C)[C@H](CC[C@@H]4[C@@](C)(CCC(=O)O)[C@H](C(=C)C)CC[C@]43C)C12` (some centres unmarked) [LS-PH, (E) 3,4-Seco-4(23), 20(29)-lupadiene-3,28-dioic acid], the IC50 in the data set with human neutrophils [1] was approximately 260 nM; in the data set with human neutrophils [2], approximately 710 nM; at FPR1, approximately 1720 nM. In addition, the “suppression of fMLF-induced intracellular ROS formation” value with human neutrophils [3] is reported as “suppress fMLF-induced intracellular ROS formation”. Further, the “cytotoxicity (LDH release)” value in the data set on human neutrophils [4] is “did not exhibit detectable cytotoxicity”.

(Values after US9895329B1, “Formyl peptide receptor 1 antagonists and uses thereof” (Chang Gung University, priority 2016, dated 2018).)
